Test results reported in patent US9295708B2, “Modified release formulations for oprozomib” (Onyx Therapeutics, Inc., priority 2012, dated 2016).
In brackets after ≈: the same amount, converted by molar mass.

Experiment: API solubility in water
Format: physicochemical

solubility: ~500 µg/mL (≈ 939 µM)
SMILES: COC[C@H](NC(=O)c1cnc(C)s1)C(=O)N[C@@H](COC)C(=O)N[C@@H](Cc1ccccc1)C(=O)[C@@]1(C)CO1 [API, Oprozomib]
